Laboratory results published in article PMC6591251, “Discovery of potent necroptosis inhibitors targeting RIPK1 kinase activity for the treatment of inflammatory disorder and cancer metastasis” (Cell Death & Disease, 2019).

Tests used:
[1] = tested on: mouse embryonic fibroblasts (MEFs); experiment: TNF-induced necroptosis (T/S/Z), cell viability by ATP levels; type: cell-based; conditions: Fibroblast, 24 h, MEF, T/S/Z 24 h
[2] = tested on: U937 cells; experiment: as above; type: cell-based; conditions: Homo sapiens, U-937, 24 h, T/S/Z 24 h
[3] = tested on: RFP-LL/2 cells; experiment: Lung metastasis model of RFP-labeled Lewis lung carcinoma cells; type: in vivo, C57BL/6 mice; conditions: 5 mg/kg ip pre-treatment; 14 days
Protocol: Studies have shown that RIPK1 kinase activity is involved in the promotion of tumor metastasis through death receptor 6-dependent necroptosis of endothelial cells[22] or VEGF-dependent activation of vascular permeability. We thus evaluated the therapeutic effect of PK68 on lung metastasis of mouse melanoma B16-F10 cells in vivo. […] After 2 weeks, the metastasis of B16-F10 cells was measured by histological analysis and assessed as the number of metastasis nodules in the lung. […] Two weeks after intravenous injection of RFP-LL/2 cells, RFP^+ LL/2 cells were isolated from the tumor tissues by flow cytometer sorting and no signal of phosphorylated RIPK1 was detected in these tumors cells (Supplementary Fig. 22). […] Further, we evaluated the effect of PK68 on the tumor cell transmigration across the cultured endothelium. […]
C57BL/6 mice bearing B16-F10 cells (a, b) or RFP-labeled LL/2 cells (c, d) were treated with vehicle, PK68 (5 mg/kg) or Nec-1s (5 mg/kg) as described in the Materials and methods. a, b Tumor metastasis of B16-F10 was measured by the numbers of metastasis nodules and histological analysis. […] The numbers of metastasis nodules on lung surfaces (b) in the metastasis model of B16-F10 were counted with the microscope. c, d Tumor metastasis of RFP-labeled LL/2 was calculated by RFP […] intensity. […]

[4] = biological target: T1, AKT2 (Homo sapiens, UniProt P31751); experiment: RBC kinase panel; type: biochemical; conditions: ATP 10 μM, Data1, Data2
T1 construct: purchased Reaction Biology Corporation
Procedure, shortened: (§1)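 In this selectivity screen, one compound concentration (1 μM) was applied to 369 human kinases, with duplicates and 10 μM ATP in each reaction.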

[5] = biological target: T2, GLK/MAP4K3 (Homo sapiens, UniProt Q8IVH8); experiment: RBC kinase panel; type: biochemical; conditions: ATP 10 μM, Data1, Data2
T2 construct: purchased Reaction Biology Corporation
Procedure, shortened: as §1

[6] = biological target: T3, SBK1 (Homo sapiens, UniProt Q52WX2); experiment: RBC kinase panel; type: biochemical; conditions: ATP 10 μM, Data1, Data2
T3 construct: purchased Reaction Biology Corporation
Procedure, shortened: as §1

[7] = biological target: T4, YSK4/MAP3K19 (Homo sapiens, UniProt Q56UN5); experiment: RBC kinase panel; type: biochemical; conditions: ATP 10 μM, Data1, Data2
T4 construct: purchased Reaction Biology Corporation
Procedure, shortened: as §1

[8] = biological target: T5, MNK1 (Homo sapiens, UniProt Q9BUB5); experiment: RBC kinase panel; type: biochemical; conditions: ATP 10 μM, Data1, Data2
T5 construct: purchased Reaction Biology Corporation
Procedure, shortened: as §1

[9] = biological target: T6, SNARK/NUAK2 (Homo sapiens, UniProt Q9H093); experiment: RBC kinase panel; type: biochemical; conditions: ATP 10 μM, Data1, Data2
T6 construct: purchased Reaction Biology Corporation
Procedure, shortened: as §1

[10] = biological target: T7, MSSK1/STK23 (Homo sapiens, UniProt Q9UPE1); experiment: RBC kinase panel; type: biochemical; conditions: ATP 10 μM, Data1, Data2
T7 construct: purchased Reaction Biology Corporation
Procedure, shortened: as §1

[11] = biological target: T8, SRMS (Homo sapiens, UniProt Q9H3Y6); experiment: RBC kinase panel; type: biochemical; conditions: ATP 10 μM, Data1, Data2
T8 construct: purchased Reaction Biology Corporation
Procedure, shortened: as §1

[12] = biological target: T9, c-Src (Homo sapiens, UniProt P12931); experiment: RBC kinase panel; type: biochemical; conditions: ATP 10 μM, Data1, Data2
T9 construct: purchased Reaction Biology Corporation
Procedure, shortened: as §1

[13] = biological target: T10, NEK2 (Homo sapiens, UniProt P51955); experiment: RBC kinase panel; type: biochemical; conditions: ATP 10 μM, Data1, Data2
T10 construct: purchased Reaction Biology Corporation
Procedure, shortened: as §1

[14] = biological target: T11, EPHA5 (Homo sapiens, UniProt P54756); experiment: RBC kinase panel; type: biochemical; conditions: ATP 10 μM, Data1, Data2
T11 construct: purchased Reaction Biology Corporation
Procedure, shortened: as §1

[15] = biological target: T12, NLK (Homo sapiens, UniProt Q9UBE8); experiment: RBC kinase panel; type: biochemical; conditions: ATP 10 μM, Data1, Data2
T12 construct: purchased Reaction Biology Corporation
Procedure, shortened: as §1

[16] = biological target: T13, VRK2 (Homo sapiens, UniProt Q86Y07); experiment: RBC kinase panel; type: biochemical; conditions: ATP 10 μM, Data1, Data2
T13 construct: purchased Reaction Biology Corporation
Procedure, shortened: as §1

[17] = biological target: T14, MEK5 (Homo sapiens, UniProt Q13163); experiment: RBC kinase panel; type: biochemical; conditions: ATP 10 μM, Data1, Data2
T14 construct: purchased Reaction Biology Corporation
Procedure, shortened: as §1

[18] = biological target: T15, CDK9/cyclin T1 (Homo sapiens, UniProt P50750); experiment: RBC kinase panel; type: biochemical; conditions: ATP 10 μM, Data1, Data2
T15 construct: purchased Reaction Biology Corporation
Procedure, shortened: as §1

T4 sequence (Q56UN5 whole entry): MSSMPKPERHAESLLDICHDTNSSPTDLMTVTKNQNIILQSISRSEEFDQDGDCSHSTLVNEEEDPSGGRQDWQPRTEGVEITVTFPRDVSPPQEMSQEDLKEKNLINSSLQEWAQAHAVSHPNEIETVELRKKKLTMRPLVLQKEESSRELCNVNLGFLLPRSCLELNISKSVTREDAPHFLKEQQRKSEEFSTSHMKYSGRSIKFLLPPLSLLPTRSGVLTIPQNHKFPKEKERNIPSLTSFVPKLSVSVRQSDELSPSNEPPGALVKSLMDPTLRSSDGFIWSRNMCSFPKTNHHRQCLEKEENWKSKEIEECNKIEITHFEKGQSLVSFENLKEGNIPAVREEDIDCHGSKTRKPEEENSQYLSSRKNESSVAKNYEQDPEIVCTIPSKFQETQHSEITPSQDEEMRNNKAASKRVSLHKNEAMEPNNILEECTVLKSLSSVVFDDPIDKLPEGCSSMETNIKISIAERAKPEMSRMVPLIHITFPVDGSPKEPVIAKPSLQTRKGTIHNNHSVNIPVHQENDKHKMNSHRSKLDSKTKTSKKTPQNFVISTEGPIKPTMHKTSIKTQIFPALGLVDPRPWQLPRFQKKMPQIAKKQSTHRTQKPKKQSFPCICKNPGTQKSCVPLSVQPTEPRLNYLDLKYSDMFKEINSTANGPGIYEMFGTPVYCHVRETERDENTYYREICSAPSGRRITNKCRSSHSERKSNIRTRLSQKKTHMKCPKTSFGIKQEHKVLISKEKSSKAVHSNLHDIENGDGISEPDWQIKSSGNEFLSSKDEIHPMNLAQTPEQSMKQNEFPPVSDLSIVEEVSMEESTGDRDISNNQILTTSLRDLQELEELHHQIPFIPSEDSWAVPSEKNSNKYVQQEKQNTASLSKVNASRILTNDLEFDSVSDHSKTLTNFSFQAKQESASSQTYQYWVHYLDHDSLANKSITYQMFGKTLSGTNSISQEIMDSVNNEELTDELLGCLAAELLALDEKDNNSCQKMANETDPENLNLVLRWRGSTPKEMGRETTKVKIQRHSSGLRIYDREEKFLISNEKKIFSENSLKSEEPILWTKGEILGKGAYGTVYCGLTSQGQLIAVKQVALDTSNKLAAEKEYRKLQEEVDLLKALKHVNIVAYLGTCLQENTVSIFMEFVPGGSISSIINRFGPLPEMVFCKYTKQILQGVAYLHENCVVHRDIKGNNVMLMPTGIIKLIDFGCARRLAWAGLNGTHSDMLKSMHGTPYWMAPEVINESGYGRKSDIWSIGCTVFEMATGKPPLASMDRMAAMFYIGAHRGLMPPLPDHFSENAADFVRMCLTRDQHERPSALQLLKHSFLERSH
T7 sequence (Q9UPE1 whole entry): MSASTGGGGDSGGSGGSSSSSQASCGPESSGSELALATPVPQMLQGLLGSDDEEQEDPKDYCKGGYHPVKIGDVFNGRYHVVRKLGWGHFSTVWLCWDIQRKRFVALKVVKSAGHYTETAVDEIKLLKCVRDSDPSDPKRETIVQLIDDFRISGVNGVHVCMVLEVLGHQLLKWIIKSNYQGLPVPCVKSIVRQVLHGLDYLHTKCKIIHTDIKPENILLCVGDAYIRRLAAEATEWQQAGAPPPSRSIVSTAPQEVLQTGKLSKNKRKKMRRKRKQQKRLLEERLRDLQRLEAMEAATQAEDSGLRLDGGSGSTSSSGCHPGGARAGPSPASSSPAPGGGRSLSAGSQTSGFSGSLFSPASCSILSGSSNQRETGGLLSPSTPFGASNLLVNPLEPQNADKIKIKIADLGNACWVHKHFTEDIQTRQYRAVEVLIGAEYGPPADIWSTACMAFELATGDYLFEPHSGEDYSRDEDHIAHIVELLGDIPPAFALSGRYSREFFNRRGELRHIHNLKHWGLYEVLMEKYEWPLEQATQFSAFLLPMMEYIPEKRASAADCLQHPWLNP
T2 sequence (Q8IVH8 whole entry): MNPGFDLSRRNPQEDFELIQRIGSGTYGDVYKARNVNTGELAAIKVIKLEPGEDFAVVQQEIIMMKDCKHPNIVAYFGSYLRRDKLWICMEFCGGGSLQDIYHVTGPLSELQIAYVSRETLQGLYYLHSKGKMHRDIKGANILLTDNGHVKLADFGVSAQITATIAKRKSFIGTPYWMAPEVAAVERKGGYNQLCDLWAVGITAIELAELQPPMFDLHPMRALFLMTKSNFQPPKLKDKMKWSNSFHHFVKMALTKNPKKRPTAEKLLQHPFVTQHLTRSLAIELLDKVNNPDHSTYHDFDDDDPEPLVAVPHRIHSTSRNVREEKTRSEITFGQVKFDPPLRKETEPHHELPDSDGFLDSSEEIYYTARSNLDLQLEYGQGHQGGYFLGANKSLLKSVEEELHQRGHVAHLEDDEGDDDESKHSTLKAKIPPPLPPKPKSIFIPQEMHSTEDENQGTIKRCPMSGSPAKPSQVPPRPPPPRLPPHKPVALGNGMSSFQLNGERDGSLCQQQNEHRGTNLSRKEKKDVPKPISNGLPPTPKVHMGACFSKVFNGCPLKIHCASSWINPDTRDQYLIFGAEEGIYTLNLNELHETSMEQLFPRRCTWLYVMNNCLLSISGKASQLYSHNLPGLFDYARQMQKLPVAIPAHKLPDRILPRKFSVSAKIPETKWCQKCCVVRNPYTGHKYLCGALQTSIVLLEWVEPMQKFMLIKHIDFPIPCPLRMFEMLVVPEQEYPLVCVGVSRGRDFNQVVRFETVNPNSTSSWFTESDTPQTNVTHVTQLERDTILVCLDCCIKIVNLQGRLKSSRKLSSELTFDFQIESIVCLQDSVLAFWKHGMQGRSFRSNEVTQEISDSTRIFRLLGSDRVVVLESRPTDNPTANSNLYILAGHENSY
T10 sequence (P51955 whole entry): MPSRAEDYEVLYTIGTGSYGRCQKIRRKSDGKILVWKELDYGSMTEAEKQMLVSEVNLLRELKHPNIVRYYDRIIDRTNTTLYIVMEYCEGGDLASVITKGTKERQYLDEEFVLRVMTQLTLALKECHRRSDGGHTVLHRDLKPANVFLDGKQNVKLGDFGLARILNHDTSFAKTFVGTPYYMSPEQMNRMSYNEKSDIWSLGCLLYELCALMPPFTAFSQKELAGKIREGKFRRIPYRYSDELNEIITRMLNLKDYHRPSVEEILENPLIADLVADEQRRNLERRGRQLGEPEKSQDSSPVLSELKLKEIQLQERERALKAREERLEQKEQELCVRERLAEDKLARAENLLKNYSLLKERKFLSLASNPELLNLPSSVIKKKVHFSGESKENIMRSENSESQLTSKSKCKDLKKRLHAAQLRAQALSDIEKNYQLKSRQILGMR
T3 sequence (Q52WX2 whole entry): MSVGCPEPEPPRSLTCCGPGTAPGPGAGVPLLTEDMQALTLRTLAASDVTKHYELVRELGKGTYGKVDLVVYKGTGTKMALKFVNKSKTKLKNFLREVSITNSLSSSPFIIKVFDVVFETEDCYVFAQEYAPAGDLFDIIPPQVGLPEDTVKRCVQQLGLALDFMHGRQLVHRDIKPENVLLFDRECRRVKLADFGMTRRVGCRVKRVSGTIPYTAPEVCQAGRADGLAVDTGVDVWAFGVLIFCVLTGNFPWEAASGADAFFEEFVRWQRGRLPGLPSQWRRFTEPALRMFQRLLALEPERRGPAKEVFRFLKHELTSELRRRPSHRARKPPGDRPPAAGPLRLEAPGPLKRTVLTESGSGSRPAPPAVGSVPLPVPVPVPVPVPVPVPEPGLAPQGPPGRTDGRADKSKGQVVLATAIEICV
T13 sequence (Q86Y07 whole entry): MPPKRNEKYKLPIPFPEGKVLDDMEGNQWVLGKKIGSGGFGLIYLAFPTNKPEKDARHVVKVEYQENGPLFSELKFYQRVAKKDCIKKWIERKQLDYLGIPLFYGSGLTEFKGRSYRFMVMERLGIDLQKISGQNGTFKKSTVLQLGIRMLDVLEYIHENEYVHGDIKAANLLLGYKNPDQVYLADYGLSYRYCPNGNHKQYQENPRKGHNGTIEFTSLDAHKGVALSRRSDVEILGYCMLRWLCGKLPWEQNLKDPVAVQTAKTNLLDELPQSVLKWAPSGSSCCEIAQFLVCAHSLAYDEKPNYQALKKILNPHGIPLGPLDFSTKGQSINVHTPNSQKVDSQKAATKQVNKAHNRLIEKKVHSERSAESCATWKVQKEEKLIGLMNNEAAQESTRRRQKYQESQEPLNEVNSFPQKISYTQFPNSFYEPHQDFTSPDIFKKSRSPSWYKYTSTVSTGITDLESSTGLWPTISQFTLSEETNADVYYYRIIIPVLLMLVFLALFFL
T14 sequence (Q13163 whole entry): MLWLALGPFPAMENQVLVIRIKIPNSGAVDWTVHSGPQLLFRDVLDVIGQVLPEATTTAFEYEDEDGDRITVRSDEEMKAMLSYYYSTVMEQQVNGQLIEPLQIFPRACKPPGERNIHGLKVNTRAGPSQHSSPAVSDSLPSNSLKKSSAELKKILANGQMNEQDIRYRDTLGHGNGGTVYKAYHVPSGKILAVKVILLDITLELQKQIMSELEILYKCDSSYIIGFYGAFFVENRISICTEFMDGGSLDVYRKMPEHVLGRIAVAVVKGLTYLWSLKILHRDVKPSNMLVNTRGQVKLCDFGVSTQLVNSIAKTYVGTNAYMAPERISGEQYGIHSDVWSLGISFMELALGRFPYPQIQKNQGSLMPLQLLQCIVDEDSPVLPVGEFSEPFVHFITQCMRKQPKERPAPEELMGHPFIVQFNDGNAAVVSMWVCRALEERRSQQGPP

CC(=O)Nc1nc2ccc(-c3cnc(Cl)c(NC(=O)Cc4ccccc4)c3)cc2s1 [PK6, N-(5-(2-acetamidobenzo[d]thiazol-6-yl)-2-chloropyridin-3-yl)-2-phenylacetamide]
EC50 [1]: ~950 nM
EC50 [2]: ~1330 nM

CC(=O)Nc1nc2ccc(-c3cnc(C)c(NC(=O)OC4CCCCC4)c3)cc2s1 [PK68, cyclohexyl (5-(2-acetamidobenzo[d]thiazol-6-yl)-2-methylpyridin-3-yl)carbamate]
lung metastasis of RFP-LL/2 cells [3]: markedly decreased
Activity% ([4]; 1 μM): 96.89%
activity at 1 µM [4]: 97.5%
Activity% ([5]; 1 μM): 102.14%
activity at 1 µM [5]: 104%
Activity% ([6]; 1 μM): 102.75%
activity at 1 µM [6]: 104%
Activity% ([7]; 1 μM): 94.66%
activity at 1 µM [7]: 95%
Activity% ([8]; 1 μM): 99.13%
activity at 1 µM [8]: 100%
Activity% ([9]; 1 μM): 97.10%
activity at 1 µM [9]: 98.7%
Activity% ([10]; 1 μM): 100.79%
activity at 1 µM [10]: 103%
Activity% ([11]; 1 μM): 97.95%
activity at 1 µM [11]: 99.7%
Activity% ([12]; 1 μM): 95.17%
activity at 1 µM [12]: 96.3%
Activity% ([13]; 1 μM): 112.29%
activity at 1 µM [13]: 115%
Activity% ([14]; 1 μM): 100.43%
activity at 1 µM [14]: 102%
Activity% ([15]; 1 μM): 98.89%
activity at 1 µM [15]: 103%
Activity% ([16]; 1 μM): 93.34%
activity at 1 µM [16]: 94.4%
Activity% ([17]; 1 μM): 97.06%
activity at 1 µM [17]: 97.5%
Activity% ([18]; 1 μM): 110.56%
activity at 1 µM [18]: 111%
